Ten molecules from ChEMBL document CHEMBL1201862, “PubChem BioAssay data set” (2004) can be followed below.

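Tested at 5 concentrations; 48 h exposure; 96-well plates; endpoints linearly interpolated, else capped at highest concentration. GI50 is the concentration that inhibits growth by half.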 Calls of active or inactive are those of the source. Cut-off read from the data, not from the text of the source: active = GI50 up to about 1.1 µM and inactive = higher. A value given as a limit tells only on which side of the number the result lay.

Among the test systems are HCT-116; MCF7; NCI-H460; OVCAR-3; SK-MEL-5; T47D; M14; MOLT-4; CAKI-1; SF-295; IGROV-1; UO-31; K562; MDA-N; HOP-92; EKVX; DU-145; HT-29; LOX IMVI; BT-549.
Common to all, as to assay: inhibition of tumour cell growth, NCI panel, 48 h

For `CN(CCCNC(=O)c1nn(-c2ccccc2)c2c1Cc1ccccc1-2)CCCNC(=O)c1nn(-c2ccccc2)c2c1Cc1ccccc1-2`, the GI50 with HCT-116 is 1.65 µM (inactive); in the assay with MCF7, 1.63 µM (inactive); in the assay on NCI-H460, 1.66 µM (inactive); in the assay on OVCAR-3, 1.71 µM (inactive); with SK-MEL-5, 1.57 µM (inactive); with T47D it was 1.92 µM (inactive). Further, the GI50 in the assay with M14 is 1.05 µM (active); with MOLT-4 it was 1.12 µM (active); in the assay on CAKI-1 it was 1.38 µM (inactive); in the assay on SF-295 it was 1.84 µM (inactive); in the assay with IGROV-1, 1.51 µM (inactive); in the assay on UO-31 it was 1.61 µM (inactive). Also, the GI50 in the assay on K562 was 0.55 µM (active); with MDA-N it was 1.5 µM (inactive); with HOP-92 it was 1.57 µM (inactive); in the assay with EKVX it was 1.83 µM (inactive); with DU-145, 1.7 µM (inactive); in the assay on HT-29, 1.73 µM (inactive). Further, the values for the GI50 with LOX IMVI and in the assay on BT-549 were 1.51 µM (inactive) and 1.56 µM (inactive), respectively.

For `CC(C)CNP(=O)(NCC(C)C)Oc1ccc(CC(NC(=O)OCc2ccccc2)C(=O)OCc2ccccc2)cc1` (stereo not given), the GI50 with HCT-116 is 18.7 µM (inactive); in the assay on MCF7 it was 11.1 µM (inactive); in the assay with NCI-H460 it was 18.1 µM (inactive); with OVCAR-3, 3.68 µM (inactive); in the assay on SK-MEL-5, 20.2 µM (inactive); in the assay with T47D, 13.4 µM (inactive). Moreover, the GI50 in the assay on M14 was 24.3 µM (inactive); in the assay with MOLT-4, 13.9 µM (inactive); in the assay with CAKI-1 it was > 100 µM (inactive); with SF-295, 18.5 µM (inactive); with IGROV-1, 35.4 µM (inactive); in the assay with UO-31, 20.3 µM (inactive). Also, the GI50 is 20 µM (inactive) with K562; 18.8 µM (inactive) with MDA-N; 61.4 µM (inactive) with HOP-92; 34.8 µM (inactive) with EKVX; 9.46 µM (inactive) in the assay on DU-145; 17.2 µM (inactive) with HT-29. Besides, the GI50 was 16.1 µM (inactive) in the assay on LOX IMVI and 20.7 µM (inactive) with BT-549.

Turning to `CCN1c2cc(Br)cc3[nH]c(=O)n(c23)CCC1C` (stereo not given), the GI50 is 14.8 µM (inactive) in the assay on HCT-116; 19.7 µM (inactive) in the assay with MCF7; 17 µM (inactive) in the assay with NCI-H460; 14.6 µM (inactive) in the assay with OVCAR-3; 15.2 µM (inactive) in the assay on SK-MEL-5; 17.4 µM (inactive) with T47D. In addition, the GI50 with M14 was 17.2 µM (inactive); with MOLT-4, 4.32 µM (inactive); in the assay with CAKI-1, 11.6 µM (inactive); with SF-295 it was 16 µM (inactive); in the assay on IGROV-1 it was 13.9 µM (inactive); in the assay with UO-31, 14 µM (inactive). In addition, the GI50 is 5.58 µM (inactive) in the assay with K562; 4.89 µM (inactive) in the assay with MDA-N; 1.49 µM (inactive) in the assay with HOP-92; 1.43 µM (inactive) with EKVX; 18.3 µM (inactive) in the assay on DU-145; 15.6 µM (inactive) with HT-29. In addition, the values for the GI50 in the assay on LOX IMVI and in the assay on BT-549 were 11.5 µM (inactive) and 6.85 µM (inactive), respectively.

As for `CCn1cnc2c(NC(C)=O)ncnc21`, the GI50 in the assay on HCT-116, in the assay on MCF7, in the assay on NCI-H460, with OVCAR-3, with SK-MEL-5 and in the assay on T47D was > 100 µM (inactive) in each case. Besides, the GI50 in the assay with M14, with MOLT-4, in the assay on CAKI-1, in the assay on SF-295, in the assay on IGROV-1 and in the assay on UO-31 was > 100 µM (inactive) throughout. Besides, the GI50 in the assay on K562, with MDA-N, in the assay with HOP-92, with EKVX, with DU-145 and in the assay on HT-29 was > 100 µM (inactive) each time. Further, the GI50 in the assay with LOX IMVI and with BT-549 was > 100 µM (inactive) throughout.

For the molecule `CC(C)(C)c1cc(OCc2nnc(S)n2N)c(Cl)cc1OCc1nnc(S)n1N`, the GI50 in the assay on HCT-116 is 33 µM (inactive); in the assay with MCF7, 38.5 µM (inactive); in the assay with NCI-H460, 24 µM (inactive); in the assay with OVCAR-3, 32.4 µM (inactive); in the assay on SK-MEL-5, 26.5 µM (inactive); in the assay with T47D, 30.6 µM (inactive). Further, the GI50 was 51.3 µM (inactive) with M14; 22.6 µM (inactive) with MOLT-4; > 100 µM (inactive) with CAKI-1; 43.1 µM (inactive) in the assay on SF-295; 44.9 µM (inactive) in the assay on IGROV-1; 63.2 µM (inactive) in the assay on UO-31. The GI50 in the assay on K562 is 37.7 µM (inactive); with MDA-N it was 41.3 µM (inactive); with HOP-92 it was 28.1 µM (inactive); in the assay on EKVX, 49.7 µM (inactive); with DU-145 it was 59 µM (inactive); in the assay with HT-29, 43.9 µM (inactive). Also, the GI50 is 34.8 µM (inactive) in the assay with LOX IMVI and 37.5 µM (inactive) in the assay with BT-549.

As to `Cn1c2ccccc2c2c3c(c4c5ccccc5n(C)c4c21)C(=O)N(c1ccccc1)C3=O`, the GI50 in the assay with HCT-116, in the assay on MCF7, with NCI-H460, with OVCAR-3, in the assay on SK-MEL-5 and with T47D was > 100 µM (inactive) in each case. Moreover, the GI50 with M14 was > 100 µM (inactive); in the assay on MOLT-4 it was > 100 µM (inactive); in the assay on CAKI-1, > 100 µM (inactive); in the assay on SF-295 it was > 100 µM (inactive); with IGROV-1 it was 98.6 µM (inactive); in the assay on UO-31, > 100 µM (inactive). Further, the GI50 with K562, with MDA-N, with HOP-92, in the assay on EKVX, with DU-145 and in the assay with HT-29 was > 100 µM (inactive) throughout. Also, the GI50 with LOX IMVI and in the assay on BT-549 was > 100 µM (inactive) throughout.

As for `O=C1OC2c3ccccc3C(=O)C2(c2ccccc2)N1c1ccccc1` (stereo not given), the GI50 in the assay with HCT-116 was > 200 µM (inactive); in the assay on MCF7 it was > 200 µM (inactive); in the assay with NCI-H460 it was > 200 µM (inactive); in the assay on OVCAR-3, > 200 µM (inactive); with SK-MEL-5 it was > 200 µM (inactive); in the assay on T47D, 174 µM (inactive). Further, the GI50 with M14 is > 200 µM (inactive); with MOLT-4, 186 µM (inactive); in the assay with CAKI-1 it was 121 µM (inactive); in the assay on SF-295, > 200 µM (inactive); with IGROV-1, > 200 µM (inactive); in the assay on UO-31, 72.6 µM (inactive). Further, the GI50 with K562 was 139 µM (inactive); with MDA-N, > 200 µM (inactive); in the assay with HOP-92 it was > 200 µM (inactive); in the assay on EKVX, > 200 µM (inactive); in the assay with DU-145, > 200 µM (inactive); in the assay on HT-29 it was > 200 µM (inactive). In addition, the GI50 in the assay on LOX IMVI and in the assay with BT-549 was > 200 µM (inactive) each time.

As for `COC1C(OC(=O)/C=C/C=C/C=C/C=C/C(=O)O)CCC2(CO2)C1C1(C)OC1CC=C(C)C` (stereo not given), the GI50 is 12.6 µM (inactive) in the assay with HCT-116; 25.1 µM (inactive) in the assay on MCF7; 0.112 µM (active) in the assay with NCI-H460; 29.2 µM (inactive) in the assay on OVCAR-3; 18.5 µM (inactive) with SK-MEL-5; 18.4 µM (inactive) in the assay with T47D. Also, the GI50 is 13.6 µM (inactive) in the assay on M14; 25.4 µM (inactive) in the assay on MOLT-4; 43.8 µM (inactive) with CAKI-1; 17.3 µM (inactive) in the assay on SF-295; 46.3 µM (inactive) in the assay on IGROV-1; 24.5 µM (inactive) in the assay on UO-31. For the same molecule, the GI50 in the assay with K562 is 21.1 µM (inactive); with MDA-N, 20.5 µM (inactive); with HOP-92, 27.4 µM (inactive); with EKVX, 27.2 µM (inactive); with DU-145, 35.2 µM (inactive); with HT-29, 21.1 µM (inactive). For the same molecule, the GI50 in the assay on LOX IMVI is 17.4 µM (inactive); in the assay with BT-549, 21.6 µM (inactive).

In the case of `O[C@@]1(c2cccs2)c2cccc(Cl)c2[C@](O)(c2cccs2)c2cccc(Cl)c21`, the GI50 with HCT-116 is 13.2 µM (inactive); in the assay on MCF7, 18.5 µM (inactive); in the assay with NCI-H460, 16.9 µM (inactive); in the assay with OVCAR-3, 16.3 µM (inactive); in the assay on SK-MEL-5, 17.3 µM (inactive); in the assay on T47D, 32.9 µM (inactive). For the same molecule, the GI50 was 15.4 µM (inactive) in the assay with M14; 15.9 µM (inactive) in the assay with MOLT-4; 24.4 µM (inactive) in the assay on CAKI-1; 11.1 µM (inactive) with SF-295; 16.3 µM (inactive) in the assay with IGROV-1; 46.7 µM (inactive) in the assay with UO-31. In addition, the GI50 in the assay with K562 was 25.5 µM (inactive); in the assay with MDA-N, 16.8 µM (inactive); with HOP-92, 67.9 µM (inactive); in the assay on EKVX, 16.8 µM (inactive); with DU-145 it was 24.7 µM (inactive); with HT-29, 17.2 µM (inactive). The results for the GI50 in the assay on LOX IMVI and in the assay on BT-549 were 16.4 µM (inactive) and 19.2 µM (inactive), respectively.

Consider `CC(=O)OC1(C)CC(C)C(=O)C(C(O)CC2CC(=O)NC(=O)C2)C1` (stereo not given), for which the GI50 is 0.00743 µM (active) in the assay on HCT-116; 0.0176 µM (active) in the assay on MCF7; 0.0121 µM (active) with NCI-H460; 0.0236 µM (active) in the assay on OVCAR-3; 0.00787 µM (active) in the assay on SK-MEL-5; 0.0179 µM (active) in the assay on T47D. Besides, the GI50 in the assay on M14 was 0.0161 µM (active); with MOLT-4 it was 0.00444 µM (active); in the assay on CAKI-1 it was 0.0875 µM (active); in the assay on SF-295 it was 0.0127 µM (active); in the assay with IGROV-1, 0.031 µM (active); in the assay with UO-31, 0.0219 µM (active). For the same molecule, the GI50 was 0.0178 µM (active) with K562; 0.0166 µM (active) in the assay on MDA-N; 0.00172 µM (active) with HOP-92; 0.0253 µM (active) with EKVX; 0.0118 µM (active) in the assay on DU-145; 0.00798 µM (active) in the assay with HT-29. For the same molecule, the results for the GI50 in the assay on LOX IMVI and in the assay with BT-549 were 0.013 µM (active) and 0.0334 µM (active), respectively.
